Experimental findings from PMC6796385, “Characterizing potential repelling volatiles for “push-pull” strategy against stem borer: a case study in Chilo auricilius” (BMC Genomics, 2019) are described below.

The term Kd denotes the free concentration of one partner at which half of the binding sites on the other are occupied at equilibrium, for simple one-to-one binding. Read a high Kd as weaker binding.

This experiment addresses CSP8 (chemosensory protein 8). The experiment can be described thus: direct fluorescence titration of purified CSP8 with the fluorescent probe, Scatchard plot. Format: binding, Chilo auricilius.

`c1ccc(Nc2cccc3ccccc23)cc1` [1-NPN, N-phenyl-1-naphthylamine] yielded a Kd of 4 ± 0.13 µM.
